{"source": "patent US10203334B2", "about": "“Methods and compositions related to nucleic acid binding assays” (Nubad, LLC, priority 2012, dated 2019)", "type_in_all_cases": "binding", "key": {"[1]": {"tested_on": "E. coli ribosomal A-site oligonucleotide (SEQ ID No. 1)", "experiment": "96-well F-neo displacement HTS on ribosomal A-site", "conditions": "96-well plate reader; 0.30 mM F-neo and 0.3 mM A-site oligonucleotide", "excerpt": "[drawing 24] where FHNeo represents the protonated form of F-neo. F(-)Neo, upon binding to nucleic acids such as DNA or RNA, is destabilized by the nucleic acid backbone negative potential, shifting the equilibrium towards FH, making F-neo a weaker acid, raising the pKa, which is what we observe upon binding to the A-site. For the A-site targeted assay, we calculated the Z' factor (Z=1-3(2.7+2.8)/(414-267)=0.89. […] Provided is a detailed example for the development of a HTS by the displacement of a fluorescene-neomycin (F-neo (42a)) from rRNA A-site oligonucleotide (SEQ ID No. 1) using a 96 well plate format and a fluorescent plate reader. […] This HTS involves the displacement of a fluorescene-neomycin (F-neo (42a)) by potential RNA binding molecules in a 96 well plate format using a fluorescent plate reader. […] F-neo based RNA binding assays have been performed using a fluorescence spectrophotometer with a 96-well plate reader and results recorded in FIG. 4. […] Fo is defined as the baseline fluorescence intensity of the RNA/F-neo complex and F is the intensity with added drug. The difference between the fluorescence intensity baseline of F-neo/A-site complex and complex with added drug (F-Fo) indicates the extent of the competition of drug for the binding site, this allows the relative binding affinities of aminoglycosides to be established. […]"}, "[2]": {"tested_on": "d(CCCCGGGG)2", "experiment": "Fluorescein-neomycin fluorescence quenching by DNA duplex", "conditions": "1 μM probe, 10 mM SC, 0.5 mM EDTA, pH 6.8", "description": "(§1) It has been shown that the fluorescence of a fluorescein-neomycin is quenched when bound to a nucleic acid target. In continued efforts to expand the applications of the fluorescein-neomycin conjugate, a fluorescence quenching study was performed to determine if the quenching of fluorescein-neomycin in the presence of DNA is representative of the neomycin affinity. Previous studies using the duplexes d(GGGGCCCC)2 and d(CCCCGGGG)2 have shown the binding is lower for d(CCCCGGGG)2. This has been shown from the ITC derived binding constants, FID studies, and electrostatic potential studies. […] For this reason the fluorescence quenching of fluorescein-neomycin with d(GGGGCCCC)2 and d(CCCCGGGG)2 was performed at three different buffer salt concentrations. […] Results from this study show here that the fluorescein-neomycin quenching can be applied to screening the 256 GC rich hairpins to identify which sequence neomycin has the highest affinity. Table 2 represents the change in fluorescence (%) values of fluorescein-neomycin with 1rdr d(GGGGCCCC)2 and d(CCCCGGGG)2 in 3 different buffer salt concentrations and the ratio between the change in fluorescence (%) values of F-neo with d(CCCCGGGG)2 compared to d(GGGGCCCC)2. Fluorescein-neomycin=1 μM, Buffer=10 mM SC, 0.5 mM EDTA, and either 50 mM NaCl, 100 mM NaCl, or 150 mM NaCl (pH=6.8). Experiment was performed in triplicate and the results were also polted in FIG. 10 showing the change in fluorescence (%) of fluorescein-neomycin with 1 equivalent d(GGGGCCCC)2 and d(CCCCGGGG)2 in 3 different buffer salt concentrations."}, "[3]": {"tested_on": "d(GGGGCCCC)2", "experiment": "Fluorescein-neomycin fluorescence quenching by DNA duplex", "conditions": "1 μM probe, 10 mM SC, 0.5 mM EDTA, pH 6.8", "description": "as §1"}, "[4]": {"conditions": "50 mM NaCl, listed as Fluorescein-neomycin"}, "[5]": {"conditions": "50 mM NaCl, listed as fluorescein-neomycin"}, "[6]": {"conditions": "150 mM NaCl, listed as Fluorescein-neomycin"}, "[7]": {"conditions": "150 mM NaCl, listed as fluorescein-neomycin"}}}
{"smiles": "NCC1O[C@H](OC2C(O)C(OC3C(O)[C@H](N)CC(N)[C@H]3O[C@H]3OC(CN)[C@@H](O)C(O)C3N)O[C@@H]2CSCCNC(=O)CCSCC(=O)Nc2ccc(-c3c4ccc(=O)cc-4oc4cc(O)ccc34)c(C(=O)O)c2)C(N)C(O)[C@@H]1O", "note": "(some centres unmarked) [F-neo (42a), Neomycin-Fluorescein Conjugate]", "values": [{"measurement": "reduction in fluorescence intensity on addition of A-site", "setting": "[1]", "value": 2, "unit": "fold"}, {"measurement": "ΔF (%) with 1rdr d(CCCCGGGG)2", "setting": "[2]; [4]", "value": "47.75 ± 5.60", "unit": "%"}, {"measurement": "ΔF (%) with 1rdr d(CCCCGGGG)2", "setting": "[2]; [5]", "value": 47, "unit": "%"}, {"measurement": "ΔF (%) with 1rdr d(CCCCGGGG)2", "setting": "[2]; 100 mM NaCl", "value": "32.18 ± 0.42", "unit": "%"}, {"measurement": "ΔF (%) with 1rdr d(CCCCGGGG)2", "setting": "[2]; [6]", "value": "20.36 ± 2.76", "unit": "%"}, {"measurement": "ΔF (%) with 1rdr d(CCCCGGGG)2", "setting": "[2]; [7]", "value": 20, "unit": "%"}, {"measurement": "ΔF (%) with 1rdr d(GGGGCCCC)2", "setting": "[3]; [4]", "value": "73.97 ± 5.78", "unit": "%"}, {"measurement": "ΔF (%) with 1rdr d(GGGGCCCC)2", "setting": "[3]; [5]", "value": 73, "unit": "%"}, {"measurement": "ΔF (%) with 1rdr d(GGGGCCCC)2", "setting": "[3]; 100 mM NaCl", "value": "49.28 ± 1.12", "unit": "%"}, {"measurement": "ΔF (%) with 1rdr d(GGGGCCCC)2", "setting": "[3]; [6]", "value": "33.88 ± 3.33", "unit": "%"}, {"measurement": "ΔF (%) with 1rdr d(GGGGCCCC)2", "setting": "[3]; [7]", "value": 33, "unit": "%"}]}
